# Reference: patent US7687482B2, “Bisphosphonate compounds and methods” (The Board of Trustees of the University of Illinois, priority 2006, dated 2010)
# Like-named read-outs stand apart in the source and are kept apart here.
# Columns and labels:
# D. discoideum = D. discoideum growth inhibition; format: cell-based, Dictyostelium discoideum
# Human FPPS = target: T1, Human FPPS (Homo sapiens, UniProt P14324); test: Human FPPS inhibition; format: biochemical
# T1 sequence (P14324 1-419): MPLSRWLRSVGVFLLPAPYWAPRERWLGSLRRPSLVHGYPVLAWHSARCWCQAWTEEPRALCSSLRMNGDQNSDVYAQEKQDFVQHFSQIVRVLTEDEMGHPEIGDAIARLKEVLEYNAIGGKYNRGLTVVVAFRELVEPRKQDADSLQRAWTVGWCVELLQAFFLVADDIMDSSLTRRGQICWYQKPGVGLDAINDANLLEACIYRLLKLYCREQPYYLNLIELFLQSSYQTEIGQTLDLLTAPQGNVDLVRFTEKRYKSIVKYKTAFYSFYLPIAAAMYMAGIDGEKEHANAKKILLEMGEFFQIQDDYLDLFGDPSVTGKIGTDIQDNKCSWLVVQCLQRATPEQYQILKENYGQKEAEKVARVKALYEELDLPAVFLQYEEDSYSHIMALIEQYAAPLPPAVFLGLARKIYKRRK
# Gammadelta T cell = Gammadelta T cell stimulation; format: cell-based, human
# T. brucei FPPS = T. brucei FPPS (Trypanosoma brucei, UniProt Q57WF1); test: biochemical
# Chain of T. brucei FPPS (Q57WF1 entry or part of it): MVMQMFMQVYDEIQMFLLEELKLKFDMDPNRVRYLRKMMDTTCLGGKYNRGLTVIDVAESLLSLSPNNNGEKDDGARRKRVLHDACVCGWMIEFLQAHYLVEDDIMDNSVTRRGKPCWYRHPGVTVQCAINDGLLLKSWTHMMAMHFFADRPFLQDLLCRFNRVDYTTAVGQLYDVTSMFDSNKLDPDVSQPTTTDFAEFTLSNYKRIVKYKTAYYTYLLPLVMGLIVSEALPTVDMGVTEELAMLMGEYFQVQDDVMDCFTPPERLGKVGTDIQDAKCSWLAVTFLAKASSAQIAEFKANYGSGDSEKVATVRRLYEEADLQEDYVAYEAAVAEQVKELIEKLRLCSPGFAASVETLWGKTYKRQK
# MCF-7 cell = test: Tumor cell growth inhibition, MCF-7; format: cell-based, human; conditions: breast cancer cell line
# Procedure: (§1) Bisphosphonate compounds were tested regarding tumor cell growth inhibition. […] See Table 1 and FIG. 3 showing dose-response data.
# NCI-H460 cell = test: Tumor cell growth inhibition, NCI-H460; format: cell-based, human; conditions: lung cancer cell line
# Procedure: as §1
# SF-268 cell = test: Tumor cell growth inhibition, SF-268; format: cell-based, human; conditions: central nervous system (glioblastoma) cell line
# Procedure: as §1
# [1] = target: undecaprenyl diphosphate synthase (UPPS) (Escherichia coli, UniProt P60472); test: UPPS inhibition; format: biochemical
# Chain of undecaprenyl diphosphate synthase (UPPS) (P60472 whole entry): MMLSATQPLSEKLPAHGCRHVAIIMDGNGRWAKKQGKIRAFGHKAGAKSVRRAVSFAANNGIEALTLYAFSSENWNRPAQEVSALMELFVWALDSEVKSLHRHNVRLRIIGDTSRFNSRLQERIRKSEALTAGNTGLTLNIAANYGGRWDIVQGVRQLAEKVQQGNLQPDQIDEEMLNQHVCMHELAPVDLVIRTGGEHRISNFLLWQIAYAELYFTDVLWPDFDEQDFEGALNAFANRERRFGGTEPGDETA
# Procedure: Certain compounds were also tested regarding the ability to inhibit undecaprenyl diphosphate synthase (UPPS). See results in Table 2. […] For example, an antibacterial treatment can include contacting a bacterial cell with a compound of the invention. In an embodiment, a bacterial cell can be, e.g., a Gram negative organism such as E. coli or a Gram positive organism such as Staphylococcus aureus.
# E. coli = test: Anti-bacterial activity in E. coli; format: cell-based, Escherichia coli
# Text: We considered aspects of mevalonate and non-mevalonate pathway gene regulation.
# [2] = Dictyostelium discoideum; read-out: D. discoideum IC50
molecule,measurement,setting,value
"1-hydroxy-3-(trimethylphosphoniumyl)propylidene-1,1-bisphosphonic acid [Compound 9]",IC50,D. discoideum; read-out: D. discoideum IC50,207 µM
same,Ki,Human FPPS,22.6 nM
same,EC50,Gammadelta T cell,1800 µM
"NCCC(O)(P(=O)(O)O)P(=O)(O)O [1 (Pamidronate), Pamidronate, reference compound]",IC50,D. discoideum; [2],167 µM
"NCCCC(O)(P(=O)(O)O)P(=O)(O)O [2 (alendronate), alendronate, reference compound]",IC50,D. discoideum; [2],32 µM
same,EC50,"Gammadelta T cell; Homo sapiens, T-cell",52 µM
"O=P(O)(O)C(O)(Cc1cccnc1)P(=O)(O)O [3 (risedronate), risedronate, reference compound]",EC50,"Gammadelta T cell; Homo sapiens, T-cell",6.2 µM
"O=P(O)(O)C(O)(Cn1ccnc1)P(=O)(O)O [4 (zoledronate), zoledronate, reference compound]",IC50,T. brucei FPPS,320 nM
same,IC50,"D. discoideum; Dictyostelium discoideum, read-out: D. discoideum IC50",1.9 µM
"O=P(O)(O)C(O)(C[S+]1CCCCC1)P(=O)(O)O [Compound 6, 1-hydroxy-2-(pentamethylenesulfoniumyl)ethylidene-1,1-bisphosphonic acid]",IC50,T. brucei FPPS; read-out: T. brucei FPPS IC50,400 nM
same,IC50,D. discoideum; read-out: D. discoideum IC50,4.78 µM
same,EC50,Gammadelta T cell,22.1 µM
"C[P+](C)(C)CC(O)(P(=O)(O)O)P(=O)(O)O [Compound 7, 1-hydroxy-2-(trimethylphosphoniumyl)ethylidene-1,1-bisphosphonic acid]",IC50,T. brucei FPPS; read-out: T. brucei FPPS IC50,2000 nM
same,IC50,D. discoideum; read-out: D. discoideum IC50,13.8 µM
same,Ki,Human FPPS,8.18 nM
same,EC50,Gammadelta T cell,127 µM
"CC[S+](CCCOc1ccccc1)CCC(O)(P(=O)(O)O)P(=O)(O)O (centres unmarked) [Compound 16, 1-hydroxy-3-(S-ethyl-3-phenoxypropylsulfoniumyl)propylidene-1,1-bisphosphonic acid]",IC50,D. discoideum; read-out: D. discoideum IC50,4.23 µM
same,Ki,Human FPPS,5.2 nM
same,EC50,Gammadelta T cell,199 µM
"C[S+](CCCc1ccccc1)CC(O)(P(=O)(O)O)P(=O)(O)O (centres unmarked) [Compound 23, 1-hydroxy-2-(S-methyl-3-phenylpropylsulfoniumyl)ethylidene-1,1-bisphosphonic acid]",IC50,T. brucei FPPS; read-out: T. brucei FPPS IC50,180 nM
same,IC50,D. discoideum; read-out: D. discoideum IC50,1.85 µM
same,Ki,Human FPPS,5.68 nM
"O=P(O)(O)C(Cc1ccc(Br)c(Br)c1)P(=O)(O)O [Compound 491, 2-(3,4-Dibromophenyl)ethylidene-1,1-bisphosphonic acid]",IC50,MCF-7 cell,533 µM
same,IC50,NCI-H460 cell,446 µM
same,IC50,SF-268 cell,349 µM
"CC(C)(C)C(=O)OCOP(=O)(OCOC(=O)C(C)(C)C)C(Cc1ccc(Br)c(Br)c1)P(=O)(OCOC(=O)C(C)(C)C)OCOC(=O)C(C)(C)C [Compound 493, Tetrakis-pivaloyloxymethyl 2-(3,4-dibromophenyl)ethylidene-1,1-bisphosphonate]",IC50,MCF-7 cell,0.22 µM
same,IC50,NCI-H460 cell,0.62 µM
same,IC50,SF-268 cell,0.65 µM
"CC(C)(C)C(=O)OCOP(=O)(OCOC(=O)C(C)(C)C)C(Cc1ccc(Cl)c(Cl)c1)P(=O)(OCOC(=O)C(C)(C)C)OCOC(=O)C(C)(C)C [Compound 494, Tetrakis-pivaloyloxymethyl 2-(3,4-dichlorophenyl)ethylidene-1,1-bisphosphonate]",IC50,MCF-7 cell,0.34 µM
same,IC50,NCI-H460 cell,2.7 µM
same,IC50,SF-268 cell,1.43 µM
"CC(C)OC(=O)OCOP(=O)(OCOC(=O)OC(C)C)C(Cc1ccc(Cl)c(Cl)c1)P(=O)(OCOC(=O)OC(C)C)OCOC(=O)OC(C)C [Compound 495, Tetrakis-isopropoxycarboxymethyl 2-(3,4-dichlorophenyl)ethylidene-1,1-bisphosphonate]",IC50,MCF-7 cell,1.97 µM
same,IC50,NCI-H460 cell,4.85 µM
same,IC50,SF-268 cell,4.78 µM
"O=P(O)(O)C(O)(Cc1cccc(-c2cccc(-c3ccccc3)c2)c1)P(=O)(O)O [Compound 608, 1-Hydroxy-2-[3-(3-phenylphenyl)phenyl]ethylidene-1,1-bisphsophonic acid]",IC50,"MCF-7 cell; Homo sapiens, MCF7",152 µM
same,IC50,"NCI-H460 cell; Homo sapiens, NCI-H460",140 µM
same,IC50,"SF-268 cell; Homo sapiens, SF-268",130 µM
same,IC50,[1],610 nM
"O=P(O)(O)C(O)(CCc1cccc(-c2ccc(-c3ccccc3)cc2)c1)P(=O)(O)O [Compound 618, 1-Hydroxy-3-[3-(4-phenylphenyl)phenyl]propylidene-1,1-bisphosphonic acid]",IC50,MCF-7 cell,196 µM
same,IC50,NCI-H460 cell,132 µM
same,IC50,SF-268 cell,175 µM
same,IC50,[1],12500 nM
"O=P(O)(O)C(O)(CCc1cccc(-c2ccccc2-c2ccccc2)c1)P(=O)(O)O [Compound 621, 1-Hydroxy-3-[3-(2-phenylphenyl)phenyl]propylidene-1,1-bisphosphonic acid]",IC50,"MCF-7 cell; Homo sapiens, MCF7",146 µM
same,IC50,"NCI-H460 cell; Homo sapiens, NCI-H460",133 µM
same,IC50,"SF-268 cell; Homo sapiens, SF-268",143 µM
same,IC50,[1],7510 nM
"O=P(O)(O)C(O)(CCc1cccc(-c2cccc(-c3ccccc3)c2)c1)P(=O)(O)O [Compound 622, 1-Hydroxy-3-[3-(3-phenylphenyl)phenyl]propylidene-1,1-bisphsophonic acid]",IC50,"MCF-7 cell; Homo sapiens, MCF7",43.9 µM
same,IC50,"NCI-H460 cell; Homo sapiens, NCI-H460",46.9 µM
same,IC50,"SF-268 cell; Homo sapiens, SF-268",44.7 µM
same,IC50,[1],2390 nM
"O=P(O)(O)C(O)(Cc1cccc(-c2ccccc2-c2ccccc2)c1)P(=O)(O)O [Compound 623, 1-Hydroxy-2-[3-(2-phenylphenyl)phenyl]ethylidene-1,1-bisphsophonic acid]",IC50,MCF-7 cell,92.7 µM
same,IC50,NCI-H460 cell,86.1 µM
same,IC50,SF-268 cell,58 µM
"O=P(O)(O)C(O)(Cc1ccc(-c2ccccc2-c2ccccc2)cc1)P(=O)(O)O [Compound 624, 1-Hydroxy-2-[4-(2-phenylphenyl)phenyl]ethylidene-1,1-bisphosphonic acid]",IC50,MCF-7 cell,1060 µM
same,IC50,NCI-H460 cell,329 µM
same,IC50,SF-268 cell,475 µM
"O=P(O)(O)C(O)(Cc1ccc(-c2cccc(-c3ccccc3)c2)cc1)P(=O)(O)O [Compound 625, 1-Hydroxy-2-[4-(3-phenylphenyl)phenyl]ethylidene-1,1-bisphosphonic acid]",IC50,"MCF-7 cell; Homo sapiens, MCF7",412 µM
same,IC50,"NCI-H460 cell; Homo sapiens, NCI-H460",413 µM
same,IC50,"SF-268 cell; Homo sapiens, SF-268",620 µM
same,IC50,[1],890 nM
"O=P(O)(O)C(O)(c1cccc(-c2cccc(-c3ccccc3)c2)c1)P(=O)(O)O [Compound 640, 1-Hydroxy-[3-(3-phenylphenyl)phenyl]methylene-1,1-bisphsophonic acid]",IC50,"MCF-7 cell; Homo sapiens, MCF7",310 µM
same,IC50,"NCI-H460 cell; Homo sapiens, NCI-H460",285 µM
same,IC50,"SF-268 cell; Homo sapiens, SF-268",303 µM
same,IC50,[1],1860 nM
"CC(C)(C)C(=O)OCOP(=O)(OCOC(=O)C(C)(C)C)C(Cc1cccc(-c2cccc(-c3ccccc3)c2)c1)P(=O)(OCOC(=O)C(C)(C)C)OCOC(=O)C(C)(C)C [Compound 647, Tetrakis-pivaloyloxymethyl 2-[3-(3-phenylphenyl)phenyl]ethylidene-1,1-bisphosphonate]",IC50,MCF-7 cell,2.62 µM
same,IC50,NCI-H460 cell,1.64 µM
same,IC50,SF-268 cell,2.38 µM
O=CN(O)CCCP(=O)(O)O [fosmidomycin],anti-bacterial properties,E. coli,anti-bacterial properties
"Tetrakis-isopropoxycarboxymethyl 2-(3,4-difluorophenyl)ethylidene-1,1-bisphosphonate [Compound 496]",IC50,MCF-7 cell,15.2 µM
same,IC50,NCI-H460 cell,20.1 µM
same,IC50,SF-268 cell,28.3 µM
"Tetrakis-isopropoxycarboxymethyl 2-(3-cyanophenyl)ethylidene-1,1-bisphosphonate [Compound 498]",IC50,MCF-7 cell,58.6 µM
same,IC50,NCI-H460 cell,22.6 µM
same,IC50,SF-268 cell,7.77 µM
